Results: patent publication US20250034216A1, “STEREOSELECTIVE COVALENT LIGANDS FOR ONCOGENIC AND IMMUNOLOGICAL PROTEINS” (The Scripps Research Institute, priority 2021, published 2025)

The compounds below were run against T1, ZFAT_C392 (Homo sapiens, UniProt Q9P243) (assay: IA-DTB cysteine engagement). Settings: 22Rv1 cells, 20 μM probe, 1 h, relative to DMSO.
T1 construct: endogenous in cells; host or cells: 22Rv1
T1 sequence (Q9P243 1-1243): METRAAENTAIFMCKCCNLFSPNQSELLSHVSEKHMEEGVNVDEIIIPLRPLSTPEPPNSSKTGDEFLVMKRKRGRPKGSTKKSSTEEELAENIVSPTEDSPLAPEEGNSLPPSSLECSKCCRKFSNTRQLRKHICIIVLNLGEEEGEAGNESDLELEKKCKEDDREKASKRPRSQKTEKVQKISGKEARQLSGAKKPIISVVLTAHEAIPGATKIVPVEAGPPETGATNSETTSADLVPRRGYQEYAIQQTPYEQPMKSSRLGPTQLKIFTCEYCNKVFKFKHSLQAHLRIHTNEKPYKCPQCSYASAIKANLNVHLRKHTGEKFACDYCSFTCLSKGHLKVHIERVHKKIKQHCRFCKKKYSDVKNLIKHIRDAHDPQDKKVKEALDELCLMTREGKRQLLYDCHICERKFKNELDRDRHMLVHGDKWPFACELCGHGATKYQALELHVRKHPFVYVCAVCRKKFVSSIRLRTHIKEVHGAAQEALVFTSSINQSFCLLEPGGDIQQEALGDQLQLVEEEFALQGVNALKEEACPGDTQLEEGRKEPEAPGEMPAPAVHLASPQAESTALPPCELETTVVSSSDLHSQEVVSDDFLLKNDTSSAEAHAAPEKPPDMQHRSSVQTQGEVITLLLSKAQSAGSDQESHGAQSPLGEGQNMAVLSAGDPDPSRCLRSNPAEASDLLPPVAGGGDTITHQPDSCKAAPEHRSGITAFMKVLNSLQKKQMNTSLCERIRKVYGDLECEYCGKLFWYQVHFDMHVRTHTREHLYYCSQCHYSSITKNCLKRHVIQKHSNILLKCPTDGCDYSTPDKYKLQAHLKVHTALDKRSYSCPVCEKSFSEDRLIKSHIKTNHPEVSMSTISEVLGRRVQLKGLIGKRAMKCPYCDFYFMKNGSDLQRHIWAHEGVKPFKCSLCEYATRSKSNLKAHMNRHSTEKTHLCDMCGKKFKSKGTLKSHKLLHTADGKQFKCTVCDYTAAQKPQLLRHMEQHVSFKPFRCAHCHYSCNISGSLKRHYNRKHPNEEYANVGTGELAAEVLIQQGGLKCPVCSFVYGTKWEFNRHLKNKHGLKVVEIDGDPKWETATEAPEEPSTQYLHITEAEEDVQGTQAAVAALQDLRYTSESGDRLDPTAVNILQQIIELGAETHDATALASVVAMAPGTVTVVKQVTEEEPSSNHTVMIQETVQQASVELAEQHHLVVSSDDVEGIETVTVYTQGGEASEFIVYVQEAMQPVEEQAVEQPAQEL
Format: binding
Procedure, shortened: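 First, cells are exposed to electrophilic probes in situ. Next, lysates are labeled with IA-DTB (1 h, ambient temperature), reduced, alkylated and trypsin-digested. Then, IA-DTB peptides are enriched on streptavidin, TMT-labeled and analyzed, with ratios taken against DMSO channels.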

| % engagement ZFAT_C392 | SMILES |
| --- | --- |
| 32.5% | C=CC(=O)N1C[C@@H](c2ccc(Br)cc2)[C@H]1C(=O)Nc1cccc2cccnc12 [MY-1A, (2S,3R)-1-acryloyl-3-(4-bromophenyl)-N-(quinolin-8-yl)azetidine-2-carboxamide] |
| 39% | C=CC(=O)N1C[C@H](c2ccc(Br)cc2)[C@@H]1C(=O)Nc1cccc2cccnc12 [MY-1B, (2R,3S)-1-acryloyl-3-(4-bromophenyl)-N-(quinolin-8-yl)azetidine-2-carboxamide] |
| 68.5% | C=CC(=O)N1C[C@H](c2ccc(Br)cc2)[C@H]1C(=O)Nc1cccc2cccnc12 [MY-3B, (2S,3S)-1-acryloyl-3-(4-bromophenyl)-N-(quinolin-8-yl)azetidine-2-carboxamide] |
| 17.5% | C=CC(=O)N1C[C@H](c2ccc(Br)cc2)[C@H]1C(=O)Nc1cccc2cccnc12 [MY-3A, (2S,3S)-1-acryloyl-3-(4-bromophenyl)-N-(quinolin-8-yl)azetidine-2-carboxamide] |
